In patent publication US12540143B2, “Methods and compositions for targeted protein degradation” (Ranok Therapeutics (Hangzhou) Co. Ltd., priority 2019, dated 2026):
Read-outs that look alike come from different tables or passages of the source.

Test system: MV4-11 cells
Experiment: MV4-11 Cytotoxicity Assay
Assay type: cell-based, human
Details: Homo sapiens, read-out: MV4-11 cytotoxicity

SMILES | IC50 (MV4-11, 72 hr, CCK-8) | IC50 (MV4-11, 72 h)
Cc1sc2c(c1C)C(c1ccc(Cl)cc1)=N[C@@H](CC(=O)NCCc1ccc(CN3CCC(Cc4ccc(-n5c(O)nnc5-c5cc(C(C)C)c(O)cc5O)cc4)CC3)cc1)c1nnc(C)n1-2 [Compound 98, (S)-2-(4-(4-chlorophenyl)-2,3,9-trimethyl-6H-thieno[3,2-f][1,2,4]triazolo[4,3-a][1,4]diazepin-6-yl)-N-(4-((4-(4-(3-(2,4-dihydroxy-5-isopropylphenyl)-5-hydroxy-4H-1,2,4-triazol-4-yl)benzyl)piperidin-1-yl)methyl)phenethyl)acetamide, trifluoroacetic acid] | < 100 nM | 
Cc1sc2c(c1C)C(c1ccc(Cl)cc1)=N[C@@H](CC(=O)N(C)CCOc1ccc(CN(C)Cc3ccc(-n4c(O)nnc4-c4cc(C(C)C)c(O)cc4O)cc3)cc1)c1nnc(C)n1-2 [Compound 99, (S)-2-(4-(4-chlorophenyl)-2,3,9-trimethyl-6H-thieno[3,2-f][1,2,4]triazolo[4,3-a][1,4]diazepin-6-yl)-N-(2-(4-(((4-(3-(2,4-dihydroxy-5-isopropylphenyl)-5-hydroxy-4H-1,2,4-triazol-4-yl)benzyl)(methyl)amino)methyl)phenoxy)ethyl)-N-methylacetamide, formic acid] | < 100 nM | 
CCN(Cc1ccc(OCCCNC(=O)C[C@@H]2N=C(c3ccc(Cl)cc3)c3c(sc(C)c3C)-n3c(C)nnc32)cc1)Cc1ccc(-n2c(O)nnc2-c2cc(C(C)C)c(O)cc2O)cc1 [Compound 100, (S)-2-(4-(4-chlorophenyl)-2,3,9-trimethyl-6H-thieno[3,2-f][1,2,4]triazolo[4,3-a][1,4]diazepin-6-yl)-N-(3-(4-(((4-(3-(2,4-dihydroxy-5-isopropylphenyl)-5-hydroxy-4H-1,2,4-triazol-4-yl)benzyl)(ethyl)amino)methyl)phenoxy)propyl)acetamide, formic acid] | < 100 nM | 
Cc1sc2c(c1C)C(c1ccc(Cl)cc1)=N[C@@H](CC(=O)N(C)CCOc1ccc(CN(C)Cc3ccc(-n4c(C(=O)NCC(F)(F)F)nnc4-c4cc(C(C)C)c(O)cc4O)cc3)cc1)c1nnc(C)n1-2 [Compound 101, (S)-4-(4-(((4-(2-(2-(4-(4-chlorophenyl)-2,3,9-trimethyl-6H-thieno[3,2-f][1,2,4]triazolo[4,3-a][1,4]diazepin-6-yl)-N-methylacetamido)ethoxy)benzyl)(methyl)amino)methyl)phenyl)-5-(2,4-dihydroxy-5-isopropylphenyl)-N-(2,2,2-trifluoroethyl)-4H-1,2,4-triazole-3-carboxamide, formic acid] | < 100 nM | 
CCN(Cc1ccc(OCCCNC(=O)C[C@@H]2N=C(c3ccc(Cl)cc3)c3c(sc(C)c3C)-n3c(C)nnc32)cc1)Cc1ccc(-n2c(C(=O)NCC(F)(F)F)nnc2-c2cc(C(C)C)c(O)cc2O)cc1 [Compound 102, (S)-4-(4-(((4-(3-(2-(4-(4-chlorophenyl)-2,3,9-trimethyl-6H-thieno[3,2-f][1,2,4]triazolo[4,3-a][1,4]diazepin-6-yl)acetamido)propoxy)benzyl)(ethyl)amino)methyl)phenyl)-5-(2,4-dihydroxy-5-isopropylphenyl)-N-(2,2,2-trifluoroethyl)-4H-1,2,4-triazole-3-carboxamide, trifluoroacetic acid] | < 100 nM | 
Cc1sc2c(c1C)C(c1ccc(Cl)cc1)=N[C@@H](CC(=O)N1CCC(CN3CCN(Cc4ccc(-n5c(O)nnc5-c5cc(C(C)C)c(O)cc5O)cc4)CC3)CC1)c1nnc(C)n1-2 [Compound 103, (S)-2-(4-(4-chlorophenyl)-2,3,9-trimethyl-6H-thieno[3,2-f][1,2,4]triazolo[4,3-a][1,4]diazepin-6-yl)-1-(4-((4-(4-(3-(2,4-dihydroxy-5-isopropylphenyl)-5-hydroxy-4H-1,2,4-triazol-4-yl)benzyl)piperazin-1-yl)methyl)piperidin-1-yl)ethan-1-one acetate] | < 100 nM | 
CCc1cc(-c2nnc(C(=O)NCCN(CC)CC)n2-c2ccc(CN3CCN(CC4CCN(C(=O)C[C@@H]5N=C(c6ccc(Cl)cc6)c6c(sc(C)c6C)-n6c(C)nnc65)CC4)CC3)cc2)c(O)cc1O [Compound 104, (S)-4-(4-((4-((1-(2-(4-(4-chlorophenyl)-2,3,9-trimethyl-6H-thieno[3,2-f][1,2,4]triazolo[4,3-a][1,4]diazepin-6-yl)acetyl)piperidin-4-yl)methyl)piperazin-1-yl)methyl)phenyl)-N-(2-(diethylamino)ethyl)-5-(5-ethyl-2,4-dihydroxyphenyl)-4H-1,2,4-triazole-3-carboxamide, trifluoroacetic acid] | < 100 nM | 
CCc1cc(-c2nnc(C(=O)NC(C)C)n2-c2ccc(CN3CCN(CC4CCN(C(=O)C[C@@H]5N=C(c6ccc(Cl)cc6)c6c(sc(C)c6C)-n6c(C)nnc65)CC4)CC3)cc2)c(O)cc1O [Compound 105, (S)-4-(4-((4-((1-(2-(4-(4-chlorophenyl)-2,3,9-trimethyl-6H-thieno[3,2-f][1,2,4]triazolo[4,3-a][1,4]diazepin-6-yl)acetyl)piperidin-4-yl)methyl)piperazin-1-yl)methyl)phenyl)-5-(5-ethyl-2,4-dihydroxyphenyl)-N-isopropyl-4H-1,2,4-triazole-3-carboxamide, trifluoroacetic acid] | < 100 nM | 
CCc1cc(-c2nnc(C(N)=O)n2-c2ccc(CN3CCN(CC4CCN(C(=O)C[C@@H]5N=C(c6ccc(Cl)cc6)c6c(sc(C)c6C)-n6c(C)nnc65)CC4)CC3)cc2)c(O)cc1O [Compound 106, (S)-4-(4-((4-((1-(2-(4-(4-chlorophenyl)-2,3,9-trimethyl-6H-thieno[3,2-f][1,2,4]triazolo[4,3-a][1,4]diazepin-6-yl)acetyl)piperidin-4-yl)methyl)piperazin-1-yl)methyl)phenyl)-5-(5-ethyl-2,4-dihydroxyphenyl)-4H-1,2,4-triazole-3-carboxamide, trifluoroacetic acid] |  | < 100 nM
Cc1sc2c(c1C)C(c1ccc(Cl)cc1)=N[C@@H](CC(=O)N1CCC(CN3CCN(Cc4ccc(-n5c(C(=O)NCCN6CCCCC6)nnc5-c5cc(C(C)C)c(O)cc5O)cc4)CC3)CC1)c1nnc(C)n1-2 [Compound 107, (S)-4-(4-((4-((1-(2-(4-(4-chlorophenyl)-2,3,9-trimethyl-6H-thieno[3,2-f][1,2,4]triazolo[4,3-a][1,4]diazepin-6-yl)acetyl)piperidin-4-yl)methyl)piperazin-1-yl)methyl)phenyl)-5-(2,4-dihydroxy-5-isopropylphenyl)-N-(2-(piperidin-1-yl)ethyl)-4H-1,2,4-triazole-3-carboxamide, trifluoroacetic acid] | < 100 nM | 
Cc1sc2c(c1C)C(c1ccc(Cl)cc1)=N[C@@H](CC(=O)N1CCC(CN3CCN(Cc4ccc(-n5c(C(=O)NC(C)C)nnc5-c5cc(C(C)C)c(O)cc5O)cc4)CC3)CC1)c1nnc(C)n1-2 [Compound 108, (S)-4-(4-((4-((1-(2-(4-(4-chlorophenyl)-2,3,9-trimethyl-6H-thieno[3,2-f][1,2,4]triazolo[4,3-a][1,4]diazepin-6-yl)acetyl)piperidin-4-yl)methyl)piperazin-1-yl)methyl)phenyl)-5-(2,4-dihydroxy-5-isopropylphenyl)-N-isopropyl-4H-1,2,4-triazole-3-carboxamide, trifluoroacetic acid] | 100 to 1000 nM | 
Cc1sc2c(c1C)C(c1ccc(Cl)cc1)=N[C@@H](CC(=O)N1CCC(CN3CCN(Cc4ccc(-n5c(C(N)=O)nnc5-c5cc(C(C)C)c(O)cc5O)cc4)CC3)CC1)c1nnc(C)n1-2 [Compound 109, (S)-4-(4-((4-((1-(2-(4-(4-chlorophenyl)-2,3,9-trimethyl-6H-thieno[3,2-f][1,2,4]triazolo[4,3-a][1,4]diazepin-6-yl)acetyl)piperidin-4-yl)methyl)piperazin-1-yl)methyl)phenyl)-5-(2,4-dihydroxy-5-isopropylphenyl)-4H-1,2,4-triazole-3-carboxamide, trifluoroacetic acid] | < 100 nM | 
Cc1sc2c(c1C)C(c1ccc(Cl)cc1)=N[C@@H](CC(=O)N1CCC(CN3CCN(Cc4ccc(-n5c(C(=O)NCCN6CCCCC6)nnc5-c5ccc(O)cc5O)cc4)CC3)CC1)c1nnc(C)n1-2 [Compound 110, (S)-4-(4-((4-((1-(2-(4-(4-chlorophenyl)-2,3,9-trimethyl-6H-thieno[3,2-f][1,2,4]triazolo[4,3-a][1,4]diazepin-6-yl)acetyl)piperidin-4-yl)methyl)piperazin-1-yl)methyl)phenyl)-5-(2,4-dihydroxyphenyl)-N-(2-(piperidin-1-yl)ethyl)-4H-1,2,4-triazole-3-carboxamide, trifluoroacetic acid] | 100 to 1000 nM | 
CCN(CC)CCNC(=O)c1nnc(-c2ccc(O)cc2O)n1-c1ccc(CN2CCN(CC3CCN(C(=O)C[C@@H]4N=C(c5ccc(Cl)cc5)c5c(sc(C)c5C)-n5c(C)nnc54)CC3)CC2)cc1 [Compound 111, (S)-4-(4-((4-((1-(2-(4-(4-chlorophenyl)-2,3,9-trimethyl-6H-thieno[3,2-f][1,2,4]triazolo[4,3-a][1,4]diazepin-6-yl)acetyl)piperidin-4-yl)methyl)piperazin-1-yl)methyl)phenyl)-N-(2-(diethylamino)ethyl)-5-(2,4-dihydroxyphenyl)-4H-1,2,4-triazole-3-carboxamide, trifluoroacetic acid] | < 100 nM | 
Cc1sc2c(c1C)C(c1ccc(Cl)cc1)=N[C@@H](CC(=O)N1CCC(CN3CCN(Cc4ccc(-n5c(C(N)=O)nnc5-c5ccc(O)cc5O)cc4)CC3)CC1)c1nnc(C)n1-2 [Compound 112, (S)-4-(4-((4-((1-(2-(4-(4-chlorophenyl)-2,3,9-trimethyl-6H-thieno[3,2-f][1,2,4]triazolo[4,3-a][1,4]diazepin-6-yl)acetyl)piperidin-4-yl)methyl)piperazin-1-yl)methyl)phenyl)-5-(2,4-dihydroxyphenyl)-4H-1,2,4-triazole-3-carboxamide, trifluoroacetic acid] | < 100 nM | 
CCc1cc(-c2nnc(C(=O)NCCN3CCCCC3)n2-c2ccc(CN3CCN(CC4CCN(C(=O)C[C@@H]5N=C(c6ccc(Cl)cc6)c6c(sc(C)c6C)-n6c(C)nnc65)CC4)CC3)cc2)c(O)cc1O [Compound 117, (S)-4-(4-((4-((1-(2-(4-(4-chlorophenyl)-2,3,9-trimethyl-6H-thieno[3,2-f][1,2,4]triazolo[4,3-a][1,4]diazepin-6-yl)acetyl)piperidin-4-yl)methyl)piperazin-1-yl)methyl)phenyl)-5-(5-ethyl-2,4-dihydroxyphenyl)-N-(2-(piperidin-1-yl)ethyl)-4H-1,2,4-triazole-3-carboxamide, trifluoroacetic acid] | < 100 nM | 
